Assay: Aqueous solubility of torcetrapib
Format: physicochemical
Conditions: aqueous environment, at about 22° C. unless otherwise specified
Experimental: The CETP inhibitor may be any compound capable of inhibiting the cholesteryl ester transfer protein. The CETP inhibitor is typically “sparingly water-soluble,” which means that the CETP inhibitor has a minimum aqueous solubility of less than about 1 to 2 mg/mL at any physiologically relevant pH (e.g., pH 1-8) and at about 22° C. Many CETP inhibitors are “substantially water-insoluble,” which means that the CETP inhibitor has a minimum aqueous solubility of less than about 0.01 mg/mL (or 10 μg/mL) at any physiologically relevant pH (e.g., pH 1-8) and at about 22° C. (Unless otherwise specified, reference to aqueous solubility herein and in the claims is determined at about 22° C.) Compositions of the present invention find greater utility as the solubility of the CETP inhibitors decreases, and thus are preferred for CETP inhibitors with solubilities less than about 10 μg/mL, and even more preferred for CETP inhibitors with solubilities less than about 1 μg/mL. Many CETP inhibitors have even lower solubilities (some even less than 0.1 μg/mL), and require dramatic concentration enhancement to be sufficiently bioavailable upon oral dosing for effective plasma concentrations to be reached at practical doses. […]

With `CCOC(=O)N1c2ccc(C(F)(F)F)cc2[C@@H](N(Cc2cc(C(F)(F)F)cc(C(F)(F)F)c2)C(=O)OC)C[C@H]1CC` [torcetrapib, [2R,4S]-4-[(3,5-bis-trifluoromethyl-benzyl)-methoxycarbonyl-amino]-2-ethyl-6-trifluoromethyl-3,4-dihydro-2H-quinoline-1-carboxylic acid ethyl ester] the solubility was less than 0.04 µg/mL.

Source: US20080145427A1, “Dosage Forms Providing Controlled and Immediate Release of Cholesteryl Ester Transfer Protein Inhibitors and Immediate Release of Hmg-Coa Reductase Inhibitors” (priority 2005, published 2008)
